Assay results from patent US10428081B2, “EGFR inhibitor, preparation method and use thereof” (Shanghai Hansoh Biomedical Co., Ltd., priority 2014, dated 2019).

Experiments:
[1] = PK analysis in rats; assay type: in vivo, Sprague Dawley (SD) rats; conditions: SD rats, single intragastric administration, 5 mg/10 ml/kg; for AUC(0-t): read-out: AUC0-8; for MRT inf: read-out: MRT0-∞
Method: 1.0 ml of intravenous blood was collected and placed in a K2EDTA test tube. The blood was centrifuged at RT 6000 rpm for 5 minutes to isolate the plasma, which was stored at −80° C.
Liquid Chromatography: • Condition of Liquid chromatography Shimadzu LC-20AD pump • Chromatographic column: phenomenex Gemiu 5 μm C18 50×4.6 mm • Mobile phase: Solution A is 0.1% formic acid aqueous solution, and Solution B is acetonitrile • Flow rate: 0.8 mL/min • Elution time: 0-3.5 minutes, the eluent used was as follows:
Condition of mass spectrometer: positive ion electrospray ionization (ESI) mode. • Analysis results of liquid chromatography and mass spectrometry:

[2] = in vivo; conditions: beagle, dog, po, 2 mg/kg
Method: 1. 1.0 ml of intravenous blood was collected and placed in a Heparin test tube. The blood was centrifuged at RT 6000 rpm for 5 minutes to isolate the plasma, which was stored at −80° C.
2. 160 μL of acetonitrile were added to 40 μL of plasma sample for precipitation, and then the mixture was centrifuged at 3500 rpm for 5 minutes.
3. 100 μL of treated solution was taken, and the concentration of the test compound was analyzed by LC/MS/MS. The LC/MS/MS analytical instrument was AB Sciex API 4000.
Liquid Chromatography: • Condition of Liquid chromatography: Shimadzu LC-20AD pump • Chromatographic column: phenomenex Gemiu 5 μm C18 50×4.6 mm • Mobile phase: Solution A is 0.1% formic acid aqueous solution, and Solution B is acetonitrile • Flow rate: 0.8 mL/min • Elution time: 0-3.5 minutes, the eluent used was as follows: […]

[3] = target: exon 20 T790M mutant-type EGFR enzyme (Homo sapiens, UniProt P00533, T790M); assay: Enzymologic experiment of T790M mutant-type EGFR (TR-FRET); assay type: biochemical; conditions: for IC50: T790M EGFR enzyme, TR-FRET, ATP 1 to 10 uM; for Selectivity of wild-type/mutant-type: ratio WT IC50 / T790M IC50, enzyme
In short: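 Compound dilutions preincubated 10 min at room temperature; reaction ended with EDTA, then labeled antibody added for 1 h at room temperature. Inhibition rates derived from TR-FRET fluorescence signal, and IC50 obtained by curve fitting across concentrations.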

[4] = target: wild-type EGFR enzyme (Homo sapiens, UniProt P00533); assay: Enzymologic experiment of wild-type (WT) EGFR (TR-FRET); assay type: biochemical; conditions: ATP 0.1 to 5 uM
In short: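 Wild-type EGFR (0.1 to 1 nM final) preincubated with serially diluted compound for 10 minutes at room temperature; reaction stopped with EDTA, then labelled antibody added for 1 hour at room temperature. TR-FRET signal converted to inhibition rates; IC50 from curve fitting across concentrations.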

[5] = tested on: NCI-H1975 cells; assay: Inhibition of NCI-H1975 cell proliferation (CellTiter-Glo); assay type: cell-based; conditions: for IC50: Homo sapiens, NCI-H1975, 72 h, NCI-H1975 cell proliferation, 72 hours, CellTiter-Glo, read-out: EGFR IC50 (nM) H1975; for Selectivity of wild-type/mutant-type: ratio A431 IC50 / H1975 IC50, cells
[6] = tested on: A431 cells; assay: Inhibition of A431 cell proliferation (CellTiter-Glo); assay type: cell-based; conditions: Homo sapiens, A-431, 72 h, read-out: EGFR IC50 (nM) A431
In short: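 Viability read as CellTiter-Glo luminescence; IC50 by curve fitting of inhibition rates.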

[7] = Sprague-Dawley, rat, po, 5 mg/kg, plasma

wild-type EGFR enzyme, sequence (P00533 25-1210): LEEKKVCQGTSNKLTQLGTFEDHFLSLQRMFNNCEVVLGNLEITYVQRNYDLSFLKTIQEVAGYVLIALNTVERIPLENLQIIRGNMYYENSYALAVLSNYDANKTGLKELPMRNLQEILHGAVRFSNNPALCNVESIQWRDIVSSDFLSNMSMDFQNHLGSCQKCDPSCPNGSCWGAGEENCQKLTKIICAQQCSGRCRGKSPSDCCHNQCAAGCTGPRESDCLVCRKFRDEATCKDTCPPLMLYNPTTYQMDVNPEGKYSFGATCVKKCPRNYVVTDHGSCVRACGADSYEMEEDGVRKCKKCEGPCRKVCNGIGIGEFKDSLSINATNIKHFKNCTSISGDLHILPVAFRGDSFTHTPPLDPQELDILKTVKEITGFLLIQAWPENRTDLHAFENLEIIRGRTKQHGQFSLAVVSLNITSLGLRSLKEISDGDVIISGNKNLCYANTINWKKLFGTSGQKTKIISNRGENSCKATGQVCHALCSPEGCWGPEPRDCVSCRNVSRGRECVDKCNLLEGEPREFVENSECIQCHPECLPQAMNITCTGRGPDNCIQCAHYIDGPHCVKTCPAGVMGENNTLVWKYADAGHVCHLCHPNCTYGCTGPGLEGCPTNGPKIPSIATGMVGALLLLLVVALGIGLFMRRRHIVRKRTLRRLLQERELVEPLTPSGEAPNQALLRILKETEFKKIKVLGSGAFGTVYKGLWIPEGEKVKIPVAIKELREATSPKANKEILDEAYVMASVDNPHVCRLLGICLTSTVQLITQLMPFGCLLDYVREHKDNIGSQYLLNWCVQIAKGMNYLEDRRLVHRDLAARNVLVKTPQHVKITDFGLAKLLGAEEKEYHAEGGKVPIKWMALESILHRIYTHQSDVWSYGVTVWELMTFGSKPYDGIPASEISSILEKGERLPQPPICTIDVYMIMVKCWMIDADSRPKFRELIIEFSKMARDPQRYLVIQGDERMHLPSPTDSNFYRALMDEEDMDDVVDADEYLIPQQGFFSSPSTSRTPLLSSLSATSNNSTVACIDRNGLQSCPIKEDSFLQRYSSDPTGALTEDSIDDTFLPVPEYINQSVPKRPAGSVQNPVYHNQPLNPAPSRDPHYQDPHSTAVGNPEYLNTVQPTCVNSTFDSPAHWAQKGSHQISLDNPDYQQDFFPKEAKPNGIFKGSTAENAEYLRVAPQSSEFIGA
exon 20 T790M mutant-type EGFR enzyme, sequence (P00533 25-1210 T790M): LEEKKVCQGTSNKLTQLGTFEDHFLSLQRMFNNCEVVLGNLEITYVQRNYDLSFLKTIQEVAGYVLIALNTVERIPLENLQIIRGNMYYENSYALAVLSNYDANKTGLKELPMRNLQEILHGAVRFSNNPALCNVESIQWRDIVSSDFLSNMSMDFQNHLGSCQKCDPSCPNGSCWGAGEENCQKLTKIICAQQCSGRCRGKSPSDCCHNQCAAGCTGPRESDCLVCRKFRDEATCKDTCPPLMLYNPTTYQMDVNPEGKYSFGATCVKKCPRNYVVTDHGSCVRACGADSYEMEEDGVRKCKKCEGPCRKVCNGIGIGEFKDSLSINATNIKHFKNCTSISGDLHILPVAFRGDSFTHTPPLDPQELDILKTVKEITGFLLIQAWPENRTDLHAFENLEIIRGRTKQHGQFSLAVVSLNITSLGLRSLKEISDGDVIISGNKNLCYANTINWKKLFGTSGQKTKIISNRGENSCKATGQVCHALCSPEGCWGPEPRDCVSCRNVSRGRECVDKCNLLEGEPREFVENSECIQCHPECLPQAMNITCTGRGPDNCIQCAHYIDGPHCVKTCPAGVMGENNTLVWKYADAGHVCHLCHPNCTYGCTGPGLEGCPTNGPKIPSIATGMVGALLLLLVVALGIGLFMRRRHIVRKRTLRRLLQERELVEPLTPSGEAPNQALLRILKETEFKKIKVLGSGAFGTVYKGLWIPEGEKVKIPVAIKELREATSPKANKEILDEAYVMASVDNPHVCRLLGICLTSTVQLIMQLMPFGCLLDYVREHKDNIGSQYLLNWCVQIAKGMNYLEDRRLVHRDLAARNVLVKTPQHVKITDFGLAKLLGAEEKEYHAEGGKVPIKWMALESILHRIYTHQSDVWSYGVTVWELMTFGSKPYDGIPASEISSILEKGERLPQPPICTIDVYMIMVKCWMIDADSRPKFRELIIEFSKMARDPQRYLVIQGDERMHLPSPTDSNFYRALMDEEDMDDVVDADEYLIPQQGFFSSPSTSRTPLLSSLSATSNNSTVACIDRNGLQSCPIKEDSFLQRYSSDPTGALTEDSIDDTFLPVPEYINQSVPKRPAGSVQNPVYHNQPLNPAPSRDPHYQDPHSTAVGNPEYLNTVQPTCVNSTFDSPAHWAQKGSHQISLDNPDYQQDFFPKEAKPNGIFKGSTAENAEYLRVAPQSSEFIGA

SMILES | Cmax [1, 7] [ng/mL] | Tmax [1, 7] [min] | AUC(0-t) [1, 7] [ng·h/mL] | Cmax [2] [ng/mL] | Tmax [2] [h] | IC50 [3] [nM] | Selectivity of wild-type/mutant-type [3] | IC50 [4] [nM] | IC50 [5] [nM] | IC50 [6] [nM] | metabolites in the plasma of rat [1] | half-life [1, 7] [min] | AUC(0-inf) [2] [ng·h/mL] | AUC(0-t) [2] [ng·h/mL] | t1/2 ([1]; plasma) [h] | AUC(0-inf) [1, 7] [ng·h/mL] | MRT inf [1, 7] [h] | MRT inf [2] [h] | half-life [2] [min] | Selectivity of wild-type/mutant-type [5]
C=CC(=O)Nc1cc(Nc2nccc(-c3cn(C)c4ccccc34)n2)c(OC)cc1N(C)CCN(C)C [AZD-9291, reference compound] | 58.3 | 120 | 278 | 81.4 | 1 | – | – | – | – | – | – | – | – | – | 3.8 | 283 | 3.9 | 9 | 324 | –
C=CC(=O)Nc1cc(Nc2nccc(-c3cn(C4CC4)c4ccccc34)n2)c(OC)cc1N(C)CCN(C)C [Example 26, N-(5-((4-(1-cyclopropyl-1H-indol-3-yl)pyrimidin-2-yl)amino)-2-((2-(dimethylamino)ethyl)(methyl)amino)-4-methoxyphenyl)acrylamide] | 58.4 | 30 | 235 | 528 | 1 | 0.49 | 3.9 | 1.89 | 2.44 | 509 | only one metabolite | 138 | 5150 | 4580 | – | 268 | 3.9 | 9.2 | 420 | 208.7
C=CC(=O)Nc1cc(Nc2nccc(-n3ncc4ccc(OC)cc43)n2)c(OC)cc1N(C)CCN1CCCC1 [Example 136, N-(4-methoxy-5-((4-(6-methoxy-1H-indazol-1-yl)pyrimidin-2-yl)amino)-2-(methyl(2-(pyrrolidin-1-yl)ethyl)amino)phenyl)acrylamide] | – | – | – | – | – | 0.78 | 5.55 | 4.33 | 11.2 | 336 | – | – | – | – | – | – | – | – | – | 30.04
C=CC(=O)Nc1cc(Nc2nccc(-n3ncc4cc(OC)ccc43)n2)c(OC)cc1N(C)CCN1CCCC1 [Example 137, N-(4-methoxy-5-((4-(5-methoxy-1H-indazol-1-yl)pyrimidin-2-yl)amino)-2-(methyl(2-(pyrrolidin-1-yl)ethyl)amino)phenyl)acrylamide] | – | – | – | – | – | 1.03 | 6.13 | 6.31 | 9.52 | 406 | – | – | – | – | – | – | – | – | – | 42.70

The next lines start with results.

Cmax [1, 7] [ng/mL] | Tmax [1, 7] [min] | AUC(0-t) [1, 7] [ng·h/mL] | Cmax [2] [ng/mL] | Tmax [2] [h] | IC50 [3] [nM] | Selectivity of wild-type/mutant-type [3] | IC50 [4] [nM] | IC50 [5] [nM] | IC50 [6] [nM] | metabolites in the plasma of rat [1] | half-life [1, 7] [min] | AUC(0-inf) [2] [ng·h/mL] | AUC(0-t) [2] [ng·h/mL] | SMILES | t1/2 ([1]; plasma) [h] | AUC(0-inf) [1, 7] [ng·h/mL] | MRT inf [1, 7] [h] | MRT inf [2] [h] | half-life [2] [min] | Selectivity of wild-type/mutant-type [5]
– | – | – | – | – | 0.5 | 9.84 | 4.92 | 3.37 | 408 | – | – | – | – | C=CC(=O)Nc1cc(Nc2nccc(-n3cnc4cc(OC)ccc43)n2)c(OC)cc1N(C)CCN1CCCC1 [Example 138, N-(4-methoxy-5-((4-(5-methoxy-1H-benzo[d]imidazol-1-yl)pyrimidin-2-yl)amino)-2-(methyl(2-(pyrrolidin-1-yl)ethyl)amino)phenyl)acrylamide] | – | – | – | – | – | 121.22
– | – | – | – | – | 0.58 | 14.76 | 8.56 | 2.66 | 576 | – | – | – | – | C#CCn1cc(-c2ccnc(Nc3cc(NC(=O)C=C)c(N(C)CCN(C)C)cc3OC)n2)c2ccccc21 [Example 140, N-(2-((2-(dimethylamino)ethyl)(methyl)amino)-4-methoxy-5-((4-(1-(prop-2-yn-1-yl)-1H-indol-3-yl)pyrimidin-2-yl)amino)phenyl)acrylamide] | – | – | – | – | – | 216.69
– | – | – | – | – | 0.23 | 7.83 | 1.8 | 3.16 | 119 | – | – | – | – | C=CC(=O)Nc1cc(Nc2nccc(-c3cn(S(=O)(=O)N(C)C)c4ccccc34)n2)c(OC)cc1N(C)CCN1CCCC1 [Example 142, N-(5-((4-(1-(N,N-dimethylsulfamoyl)-1H-indol-3-yl)pyrimidin-2-yl)amino)-4-methoxy-2-(methyl(2-(pyrrolidin-1-yl)ethyl)amino)phenyl)acrylamide] | – | – | – | – | – | 37.53
– | – | – | – | – | 0.44 | 9.50 | 4.18 | 8.29 | 377 | – | – | – | – | C=CC(=O)Nc1cc(Nc2ncc(C(F)(F)F)c(-c3cn(S(=O)(=O)N(C)C)c4cc(OC)ccc34)n2)c(OC)cc1N(C)CCN(C)C [Example 143, N-(2-((2-(dimethylamino)ethyl)(methyl)amino)-5-((4-(1-(N,N-dimethylsulfamoyl)-6-methoxy-1H-indol-3-yl)-5-(trifluoromethyl)pyrimidin-2-yl)amino)-4-methoxyphenyl)acrylamide] | – | – | – | – | – | 45.44
16.4 | 30 | 77.4 | 126 | 6 | – | – | – | – | – | – | – | – | 2060 | C=CC(=O)Nc1cc(Nc2nccc(-c3cn(C4CC4)c4ccccc34)n2)c(OC)cc1N(C)CCNC [Metabolite of Example 26] | – | – | – | – | – | –
